Consider 31 compounds from patent publication US10214519B2, “Phosphatidylinositol 3-kinase inhibitors” (Gilead Sciences, Inc., priority 2016, dated 2019).

pIC50: −log10 of the molar value.

This test deals with PI3Kβ (Homo sapiens (Human), UniProt P42338). Description: PI3K isoform TR-FRET enzymatic assay (PI3Kβ). Format: biochemical. The settings on record: 2× Km ATP, 30 minutes at 25° C. Here is the method: The compounds of formula (I) were characterized for their enzymatic activity against the PI3K isoforms. The activities were measured using a time-resolved fluorescence resonance energy transfer (TR-FRET) assay. TR-FRET monitored the formation of 3,4,5-inositol triphosphate molecule that competed with fluorescently labeled PIP3 for binding to the GRP-1 pleckstrin homology domain protein.
Chain of PI3Kβ (P42338 whole entry, the tested form may be a part, canonical isoform): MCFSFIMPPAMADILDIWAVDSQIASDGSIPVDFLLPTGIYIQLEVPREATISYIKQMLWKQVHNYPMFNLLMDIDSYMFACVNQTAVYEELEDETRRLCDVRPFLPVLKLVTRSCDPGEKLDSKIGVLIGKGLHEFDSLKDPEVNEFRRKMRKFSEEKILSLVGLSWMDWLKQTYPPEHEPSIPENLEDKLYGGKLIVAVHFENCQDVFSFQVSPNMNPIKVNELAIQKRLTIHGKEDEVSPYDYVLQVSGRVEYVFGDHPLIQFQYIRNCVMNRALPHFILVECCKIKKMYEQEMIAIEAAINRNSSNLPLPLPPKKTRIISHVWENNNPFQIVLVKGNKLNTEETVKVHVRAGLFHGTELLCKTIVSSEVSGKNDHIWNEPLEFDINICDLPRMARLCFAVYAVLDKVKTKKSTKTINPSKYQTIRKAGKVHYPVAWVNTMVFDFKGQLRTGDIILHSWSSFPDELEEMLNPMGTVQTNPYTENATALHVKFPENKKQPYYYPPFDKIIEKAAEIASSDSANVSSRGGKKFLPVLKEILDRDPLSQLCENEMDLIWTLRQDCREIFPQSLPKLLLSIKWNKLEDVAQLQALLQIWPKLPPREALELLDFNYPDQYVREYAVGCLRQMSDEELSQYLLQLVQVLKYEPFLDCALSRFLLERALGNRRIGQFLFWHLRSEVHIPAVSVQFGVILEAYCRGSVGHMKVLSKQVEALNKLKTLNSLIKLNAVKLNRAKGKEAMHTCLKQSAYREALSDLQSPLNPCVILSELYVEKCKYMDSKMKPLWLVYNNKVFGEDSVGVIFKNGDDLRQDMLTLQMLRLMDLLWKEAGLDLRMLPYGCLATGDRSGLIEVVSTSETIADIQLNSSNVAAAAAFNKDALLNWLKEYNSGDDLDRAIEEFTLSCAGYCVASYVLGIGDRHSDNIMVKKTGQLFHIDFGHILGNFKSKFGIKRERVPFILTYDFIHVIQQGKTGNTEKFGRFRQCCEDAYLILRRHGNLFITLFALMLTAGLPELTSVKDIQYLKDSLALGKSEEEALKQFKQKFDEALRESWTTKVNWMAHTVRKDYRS
Chain of PI3Kβ (P27986 whole entry partner, the tested form may be a part, canonical isoform): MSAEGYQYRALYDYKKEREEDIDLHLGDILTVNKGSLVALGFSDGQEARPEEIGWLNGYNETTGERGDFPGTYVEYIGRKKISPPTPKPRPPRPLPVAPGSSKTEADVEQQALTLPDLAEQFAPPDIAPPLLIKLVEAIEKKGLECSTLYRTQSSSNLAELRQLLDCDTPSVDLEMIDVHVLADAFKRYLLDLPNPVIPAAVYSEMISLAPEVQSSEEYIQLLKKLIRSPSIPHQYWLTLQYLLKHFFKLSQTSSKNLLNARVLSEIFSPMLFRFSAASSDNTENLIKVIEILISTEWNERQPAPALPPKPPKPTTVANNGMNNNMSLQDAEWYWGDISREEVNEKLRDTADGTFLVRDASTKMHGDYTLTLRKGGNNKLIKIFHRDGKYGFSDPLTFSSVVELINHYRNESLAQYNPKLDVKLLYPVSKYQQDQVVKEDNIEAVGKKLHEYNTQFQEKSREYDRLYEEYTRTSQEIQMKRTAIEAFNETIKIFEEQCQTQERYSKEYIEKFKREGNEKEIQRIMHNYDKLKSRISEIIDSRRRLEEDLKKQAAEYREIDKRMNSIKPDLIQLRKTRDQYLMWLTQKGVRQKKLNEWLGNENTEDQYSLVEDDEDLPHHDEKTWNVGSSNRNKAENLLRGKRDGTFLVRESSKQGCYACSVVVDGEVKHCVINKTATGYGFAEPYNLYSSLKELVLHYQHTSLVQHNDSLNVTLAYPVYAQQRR
Class I PI3K isoforms were expressed and purified as heterodimeric recombinant proteins. All assay reagents and buffers for the TR-FRET assay were purchased from Millipore. […] The compounds were added to the assay solution and incubated for 30 minutes at 25° C. The reactions were terminated with a final concentration of 10 mM EDTA, 10 nM labeled-PIP3, and 35 nM Europium labeled GRP-1 detector protein before reading TR-FRET on an Envision plate reader (Ex: 340 nm; Em: 615/665 nm; 100 μs delay and 500 μs read window).
The results were normalized based on positive (1 μM wortmanin) and negative (DMSO) controls, and the IC50 values for PI3K α, β, δ, and γ were calculated from the fit of the dose-response curves to a four-parameter equation.

Broadly, the pIC50 is the IC50 on a negative log10 scale, so that one unit is a factor of ten. A low value points to a large IC50. `CCCc1nc2c(-c3ncco3)cc(N3CCOCC3)cc2n1-c1ccnc2c(F)ccc(F)c12` (atropisomer, axis not shown) [Compound 356, 4-[3-(5,8-difluoroquinolin-4-yl)-7-(1,3-oxazol-2-yl)-2-propylbenzimidazol-5-yl]morpholine] showed a pIC50 of less than 5.00.
The compound `CCCc1nc2c(-c3cnc[nH]3)cc(N3CCOCC3)cc2n1-c1ccnc2c(Cl)cccc12` [Example 207, 4-[3-(8-chloroquinolin-4-yl)-7-(1H-imidazol-5-yl)-2-propylbenzimidazol-5-yl]morpholine] showed a pIC50 of 7.89.
For `Cc1cnc2ccccc2c1-n1c(C)nc2c(-c3nnc[nH]3)cc(N3CCOCC3)cc21` [Example 65, 4-[2-methyl-3-(3-methylquinolin-4-yl)-7-(4H-1,2,4-triazol-3-yl)benzimidazol-5-yl]morpholine] the value was 7.62; for `c1ccc2c(-n3c(C4CC4)nc4c(-c5nnc[nH]5)cc(N5CCOCC5)cc43)ccnc2c1` [Example 17, 4-(2-cyclopropyl-1-(quinolin-4-yl)-4-(4H-1,2,4-triazol-3-yl)-1H-benzo[d]imidazol-6-yl)morpholine], 7.22; for `CCCc1nc2c(-c3cnc(Cl)[nH]3)cc(N3CCOCC3)cc2n1-c1ccnc2c(F)cccc12` [Example 305, 4-[7-(2-chloro-1H-imidazol-5-yl)-3-(8-fluoroquinolin-4-yl)-2-propylbenzimidazol-5-yl]morpholine], 7.89.
The result for `Fc1ccc2c(-n3c(C4CC4)nc4c(-c5nnc[nH]5)cc(N5CCOCC5)cc43)ccnc2c1Cl` [Example 38, 4-(1-(8-chloro-7-fluoroquinolin-4-yl)-2-cyclopropyl-4-(4H-1,2,4-triazol-3-yl)-1H-benzo[d]imidazol-6-yl)morpholine] reads 7.96; that for `Cc1nc2c(-c3cnc(Cl)[nH]3)cc(N3CCOCC3)cc2n1-c1ccnc2c(F)ccc(F)c12` [Example 298, 4-[7-(2-chloro-1H-imidazol-5-yl)-3-(5,8-difluoroquinolin-4-yl)-2-methylbenzimidazol-5-yl]morpholin], 8.00.
Take `Cc1nnc(-c2cc(N3CCOCC3)cc3c2nc(-c2cccnc2)n3-c2ccnc3c(Cl)cccc23)[nH]1` [Example 23, 4-(1-(8-chloroquinolin-4-yl)-4-(5-methyl-4H-1,2,4-triazol-3-yl)-2-(pyridin-3-yl)-1H-benzo[d]imidazol-6-yl)morpholine]: the negative logarithm of the IC50 (pIC50) was 6.41. Compared with the last compound, the pIC50 is 1.59 log units lower.
`CCc1nc2ccccc2c(-n2c(C)nc3c(-c4nnc[nH]4)cc(N4CCOCC4)cc32)c1C` [Example 55, 4-[3-(2-ethyl-3-methylquinolin-4-yl)-2-methyl-7-(4H-1,2,4-triazol-3-yl)benzimidazol-5-yl]morpholine]: the pIC50 is 7.57.
For `Clc1cccc2c(-n3c(CC4CC4)nc4c(-c5ncco5)cc(N5CCOCC5)cc43)ccnc12` [Example 220, 4-[3-(8-chloroquinolin-4-yl)-2-(cyclopropylmethyl)-7-(1,3-oxazol-2-yl)benzimidazol-5-yl]morpholine] the value was 8.15; for `Cc1nc2c(-c3ncco3)cc(N3CCOCC3)cc2n1-c1ccnc2c(F)cccc12` [Example 200, 4-(1-(8-fluoroquinolin-4-yl)-2-methyl-4-(oxazol-2-yl)-1H-benzo[d]imidazol-6-yl)morpholine], 8.05; for `Cc1nnc(-c2cc(N3CCOCC3)cc3c2nc(C)n3-c2ccnc3c(Cl)c(F)ccc23)[nH]1` [Example 52, 4-(1-(8-chloro-7-fluoroquinolin-4-yl)-2-methyl-4-(5-methyl-4H-1,2,4-triazol-3-yl)-1H-benzo[d]imidazol-6-yl)morpholine], 7.82.
The result for `Fc1cccc2c(-n3c(C4CC4)nc4c(-c5ncco5)cc(N5CCOCC5)cc43)ccnc12` [Example 214, 4-[2-cyclopropyl-3-(8-fluoroquinolin-4-yl)-7-(1,3-oxazol-2-yl)benzimidazol-5-yl]morpholine] reads 7.25; that for `Cc1nc2c(-c3nnc[nH]3)cc(N3CCOCC3)cc2n1-c1ccnc2c(F)ccc(Cl)c12` (atropisomer, axis not shown) [Compound 344, 4-[3-(5-chloro-8-fluoroquinolin-4-yl)-2-methyl-7-(4H-1,2,4-triazol-3-yl)benzimidazol-5-yl]morpholine], 8.30.
For `CCCc1nc2c(-c3nnc[nH]3)cc(N3CCOCC3)cc2n1-c1ccnc2c(Cl)cc(F)cc12` [Example 33, 4-(1-(8-chloro-6-fluoroquinolin-4-yl)-2-propyl-4-(4H-1,2,4-triazol-3-yl)-1H-benzo[d]imidazol-6-yl)morpholine] the value was 8.00; for `Cc1nc2c(-c3nnc[nH]3)cc(N3CCOC[C@H]3C)cc2n1-c1ccnc2c(Cl)cccc12` [Example 100, (3R)-4-[3-(8-chloroquinolin-4-yl)-2-methyl-7-(4H-1,2,4-triazol-3-yl)benzimidazol-5-yl]-3-methylmorpholine], 7.37; for `CCCc1nc2c(-c3ccn[nH]3)cc(N3CCOCC3)cc2n1-c1ccnc2c(F)ccc(F)c12` (atropisomer, axis not shown) [Compound 368, 4-(1-(5,8-difluoroquinolin-4-yl)-2-propyl-4-(1H-pyrazol-5-yl)-1H-benzo[d]imidazol-6-yl)morpholine], 7.74.
For `Cc1nc2c(-c3nnc[nH]3)cc(N3CCOCC3)cc2n1-c1ccnc2c(F)ccc(Cl)c12` [Example 126, 4-[3-(5-chloro-8-fluoroquinolin-4-yl)-2-methyl-7-(4H-1,2,4-triazol-3-yl)benzimidazol-5-yl]morpholine], the pIC50 was 7.68.
The result for `CCc1nc2c(-c3nnc[nH]3)cc(N3CCOCC3)cc2n1-c1ccnc2c(Cl)cccc12` [Example 105, 4-[3-(8-chloroquinolin-4-yl)-2-ethyl-7-(4H-1,2,4-triazol-3-yl)benzimidazol-5-yl]morpholine] reads 8.00; that for `CCCc1nc2c(-c3ccn[nH]3)cc(N3CCOCC3)cc2n1-c1ccnc2c(F)ccc(F)c12` [Example 389], 7.80.
The result for `Cc1cc(-n2c(C)nc3c(-c4nnc[nH]4)cc(N4CCOCC4)cc32)c2ccccc2n1` [Example 69, 4-[2-methyl-3-(2-methylquinolin-4-yl)-7-(4H-1,2,4-triazol-3-yl)benzimidazol-5-yl]morpholine] reads 7.77; that for `Cc1c(C2CC2)nc2ccccc2c1-n1c(C)nc2c(-c3nnc[nH]3)cc(N3CCOCC3)cc21` [Example 56, 4-[3-(2-cyclopropyl-3-methylquinolin-4-yl)-2-methyl-7-(4H-1,2,4-triazol-3-yl)benzimidazol-5-yl]morpholine], 7.14.
For `c1ccc2c(-n3c(C4COC4)nc4c(-c5nnc[nH]5)cc(N5CCOCC5)cc43)ccnc2c1` [Example 24, 4-(2-(oxetan-3-yl)-1-(quinolin-4-yl)-4-(4H-1,2,4-triazol-3-yl)-1H-benzo[d]imidazol-6-yl)morpholine] the value was 5.82; for `CCc1nc2c(-c3nnc(Cl)[nH]3)cc(N3CCOCC3)cc2n1-c1ccnc2c(F)ccc(F)c12` [Example 179, 4-[7-(5-chloro-4H-1,2,4-triazol-3-yl)-3-(5,8-difluoroquinolin-4-yl)-2-ethylbenzimidazol-5-yl]morpholine], 7.36.
`Cc1cc(-n2c(C)nc3c(-c4nc(C)n[nH]4)cc(N4CCOCC4)cc32)c2cccc(C(F)(F)F)c2n1` [Example 77, 4-[2-methyl-7-(3-methyl-1H-1,2,4-triazol-5-yl)-3-[2-methyl-8-(trifluoromethyl)quinolin-4-yl]benzimidazol-5-yl]morpholine] showed a negative logarithm of the IC50 (pIC50) of 7.01.
Consider `N#Cc1ncc(-c2cc(N3CCOCC3)cc3c2ncn3-c2ccnc3c(F)ccc(F)c23)[nH]1` [Compound 394, 5-(1-(5,8-Difluoroquinolin-4-yl)-6-morpholino-1H-benzo[d]imidazol-4-yl)-1H-imidazole-2-carbonitrile], for which the pIC50 was 6.07.
For `CCc1nc2c(-c3nnc[nH]3)cc(N3CCOCC3)cc2n1-c1ccnc2c(F)cccc12` [Example 139, 4-[2-ethyl-3-(8-fluoroquinolin-4-yl)-7-(4H-1,2,4-triazol-3-yl)benzimidazol-5-yl]morpholine] the value was 7.85; for `CCc1nc2c(-c3ncc[nH]3)cc(N3CCOCC3)cc2n1-c1ccnc2c(F)ccc(F)c12` [Example 387, 4-(1-(5,8-difluoroquinolin-4-yl)-2-ethyl-4-(1H-imidazol-2-yl)-1H-benzo[d]imidazol-6-yl)morpholine], 7.89.
The result for `Cc1nnc(-c2cc(N3CCOCC3)cc3c2nc(C2CC2)n3-c2ccnc3c(Cl)cccc23)[nH]1` [Example 47, 4-(1-(8-chloroquinolin-4-yl)-2-cyclopropyl-4-(5-methyl-4H-1,2,4-triazol-3-yl)-1H-benzo[d]imidazol-6-yl)morpholine] reads 7.74; that for `Clc1ncc(-c2cc(N3CCOCC3)cc3c2nc(CC2CC2)n3-c2ccnc3c(Cl)cccc23)[nH]1` [Example 301, 4-[7-(2-chloro-1H-imidazol-5-yl)-3-(8-chloroquinolin-4-yl)-2-(cyclopropylmethyl)benzimidazol-5-yl]morpholine], 7.70.
For the compound `Clc1ncc(-c2cc(N3CCOCC3)cc3c2nc(C2CC2)n3-c2ccnc3c(Cl)cccc23)[nH]1` [Example 290, 4-[7-(2-chloro-1H-imidazol-5-yl)-3-(8-chloroquinolin-4-yl)-2-cyclopropylbenzimidazol-5-yl]morpholine], the pIC50 is 7.17. This pIC50 lies 0.53 log units lower than the previous one.
